Experimental data reported in patent publication US10858423B2, “Composition for the treatment of IGF-1R expressing cancer” (PIERRE FABRE MEDICAMENT, priority 2015, dated 2020).
Like-named read-outs stand apart in the source and are kept apart here. Where a SMILES comes first, the peptide text is derived from it. [ ]: non-standard residue; d: D form. The star is where a group is joined. Dolaproine = CO[C@@H]([C@@H]1CCCN1)[C@@H](C)C(=O)O; Dil = CC[C@H](C)[C@H](NC)[C@@H](CC(=O)O)OC; X2 = CNc1ccc(CCN(C)[C@H](C(=O)*)C(C)C)cc1; X3 = CC(C)C(C(=O)*)N(C)CCc1ccc(C(=O)O)cc1; X1 = CC(C)[C@@H](C(=O)*)N(C)Cc1cccc(N)c1

What was measured:
[1] = system: MDA-MB-231 cells; assay: ATPlite antiproliferative assay, MDA-MB-231; assay type: cell-based; conditions: Homo sapiens
Description: (§1) A549 (Non Small Cell Lung Cancer—ATCC CCL-185) and MDA-MB-231 (breast adenocarcinoma—ATCC HTB-26) cells were cultured in Minimum Essential Medium Eagle (MEM) with 5% fetal calf serum (FCS) and Dulbecco's modified Eagle Medium (DMEM) with 10% FCS respectively. MCF7 (breast ductal carcinoma—ATCC HTB-22) and SN-12C (kidney carcinoma—ATCC) cells were maintained in RPMI1640 medium (without phenol red for MCF7 cells) containing 10% FCS. All the media were supplemented with fungizone (1.25 μg/mL) and penicillin-streptomycin (100 U/100 μg/mL). Cells were cultured under standard conditions in an incubator at 37° C., 5% CO2 and 95% atmospheric humidity.
(§2) Selected drugs were investigated for their antiproliferative activity using an ATPlite proliferation assay (Perkin Elmer, Villebon sur Yvette, France) on a comprehensive panel of 4 cell lines. Cells were seeded in 96 well plates (10^3 cells/well for A549, 2.10^3 for MCF7, MDA-MB-231 and SN12C) at day 0 at a concentration to ensure cells remained in logarithmic cell growth phase throughout the 72 h drug treatment period. After a 24 h incubation period, all the cells were treated with serial dilutions of the tested compounds (11 μL of a 10× solution in 1% DMSO—6 wells/condition). To avoid adherence of the compounds onto the tips, tips were changed between two consecutive dilutions. Cells were then placed in 37° C., 5% CO2 incubator. On day 4, cell viability was evaluated by dosing the ATP released by viable cells. The number of viable cells was analyzed in comparison with the number of solvent treated cells. The EC50 values were determined with curve fitting analysis (non linear regression model with a sigmoidal dose response, variable hill slope coefficient), performed with the algorithm provided by the GraphPad Software (GraphPad Software Inc., CA, USA).

[2] = system: A549 cells; assay: ATPlite antiproliferative assay, A549; assay type: cell-based; conditions: Homo sapiens
Description: as §1, §2

[3] = system: SN-12C cells; assay: ATPlite antiproliferative assay, SN12C; assay type: cell-based; conditions: Homo sapiens
Description: as §1
(§3) Selected drugs were investigated for their antiproliferative activity using an ATPlite proliferation assay (Perkin Elmer, Villebon sur Yvette, France) on a comprehensive panel of 4 cell lines. […] On day 4, cell viability was evaluated by dosing the ATP released by viable cells. The number of viable cells was analyzed in comparison with the number of solvent treated cells. The EC50 values were determined with curve fitting analysis (non linear regression model with a sigmoidal dose response, variable hill slope coefficient), performed with the algorithm provided by the GraphPad Software (GraphPad Software Inc., CA, USA).

[4] = system: MCF7 cells; assay: ATPlite antiproliferative assay, MCF7; assay type: cell-based; conditions: Homo sapiens
Description: as §1, §3

[5] = system: lysosome functions; assay: inhibition of antibody degradation by lysosome inhibitor; assay type: cell-based; conditions: cells with 10 μg/ml Ab, 2 h at 37° C.
Description: In order to confirm that second IGF-1R antibodies Ab reached the lysosome were they are degraded, cells were treated or not with bafilomycine A1, a potent inhibitor of lysosome functions. Cells were then incubated with 10 μg/ml of Ab to be tested at 4° C., washed and incubated for 2 h at 37° C. The internalized Ab was detected after cell permeabilisation using a secondary anti-mouse IgG-Alexa 488 Ab.

[6] = biological target: IGF-1R (Homo sapiens, UniProt P08069); conditions: background statement; cited from earlier work
[7] = MDA-MB-231, comparative examples table, read-out: EC50 (M) MDA-MB-231
[8] = A549, comparative examples table, read-out: EC50 (M) A549

CC[C@H](C)[C@@H]([C@@H](CC(=O)N1CCC[C@H]1[C@H](OC)[C@@H](C)C(=O)N[C@@H](Cc1ccccc1)C(=O)OC)OC)N(C)C(=O)[C@@H](NC(=O)[C@H](C(C)C)N(C)CCc1ccc(NC)cc1)C(C)C [Compound 12, methyl (S)-2-((2R,3R)-3-((S)-1-((3R,4S,5S)-4-((S)—N,3-dimethyl-2-((S)-3-methyl-2-(methyl(4-(methylamino)phenethyl)amino)butanamido)butanamido)-3-methoxy-5-methylheptanoyl)pyrrolidin-2-yl)-3-methoxy-2-methylpropanamido)-3-phenylpropanoate, trifluoroacetic Acid] (X2-V[Dil][Dolaproine]F-OMe)
EC50 [1, 7]: 5.8e-10 M
EC50 ([1]; MDA-MB-231, read-out: EC50): 5.8e-10 M
EC50 [2, 8]: 1.48e-10 M

CC[C@H](C)[C@@H]([C@@H](CC(=O)N1CCC[C@H]1[C@H](OC)[C@@H](C)C(=O)N[C@@H](Cc1ccccc1)C(=O)O)OC)N(C)C(=O)[C@@H](NC(=O)[C@H](C(C)C)N(C)CCc1ccc(NC)cc1)C(C)C [Compound 13, (S)-2-((2R,3R)-3-((S)-1-((3R,4S,5S)-4-((S)—N,3-dimethyl-2-((S)-3-methyl-2-(methyl(4-(methylamino)phenethyl)amino)butanamido)butanamido)-3-methoxy-5-methylheptanoyl)pyrrolidin-2-yl)-3-methoxy-2-methylpropanamido)-3-phenylpropanoic acid, trifluoroacetic Acid] (X2-V[Dil][Dolaproine]F-OH)
EC50 [1, 7]: 7.95e-08 M
EC50 ([1]; MDA-MB-231, read-out: EC50): 7.95e-08 M
EC50 [2, 8]: 2.71e-08 M

CC[C@H](C)[C@@H]([C@@H](CC(=O)N1CCC[C@H]1[C@H](OC)[C@@H](C)C(=O)N[C@@H](Cc1ccccc1)C(=O)OC)OC)N(C)C(=O)[C@@H](NC(=O)[C@H](C(C)C)N(C)Cc1cccc(N)c1)C(C)C [Compound 15, methyl (S)-2-((2R,3R)-3-((S)-1-((3R,4S,5S)-4-((S)-2-((S)-2-((3-aminobenzyl) (methyl)amino)-3-methylbutanamido)-N,3-dimethylbutanamido)-3-methoxy-5-methylheptanoyl)pyrrolidin-2-yl)-3-methoxy-2-methylpropanamido)-3-phenylpropanoate, trifluoroacetic Acid] (X1-V[Dil][Dolaproine]F-OMe)
EC50 ([3]; 72 h drug treatment, read-out: EC50 (M) SN12C): 2.18e-10 M
EC50 ([3]; text bound, read-out: EC50): < 1e-07 M
EC50 ([4]; 72 h drug treatment, read-out: EC50 (M) MCF-7): 7.15e-10 M
EC50 ([4]; MCF-7, text bound, read-out: EC50): < 1e-07 M
EC50 ([1]; MDA-MB-231, 72 h, 72 h drug treatment, read-out: EC50 (M) MDA-MB-231): 1.7e-10 M
EC50 ([1]; MDA-MB-231, MDA-MB-231, text bound, read-out: EC50): < 1e-07 M
EC50 [1, 7]: 1.7e-10 M
EC50 ([1]; MDA-MB-231, read-out: EC50): 1.7e-10 M
EC50 ([2]; A549, 72 h drug treatment, read-out: EC50 (M) A549): 1.45e-10 M
EC50 [2, 8]: 1.45e-10 M
EC50 ([2]; A549, text bound, read-out: EC50): < 1e-07 M

CO/C1=C\C(C)=C\[C@@H](C)[C@@H](O)[C@@H](C)C/C(C)=C/C=C/[C@H](OC)[C@@H]([C@@H](C)[C@@H](O)[C@H](C)[C@@]2(O)C[C@@H](O)[C@H](C)[C@@H](C(C)C)O2)OC1=O [bafilomycine A1]
effect on degradation of intracellular Ab [5]: prevented the degradation of intracellular Ab

CC[C@H](C)[C@@H]([C@@H](CC(=O)N1CCC[C@H]1[C@H](OC)[C@@H](C)C(=O)N[C@@H](Cc1ccccc1)C(=O)OC)OC)N(C)C(=O)[C@@H](NC(=O)C(C(C)C)N(C)CCc1ccc(C(=O)O)cc1)C(C)C (some centres unmarked) [compound 1, reference compound] (X3-V[Dil][Dolaproine]F-OMe)
EC50 [1, 7]: 2.29e-09 M
EC50 [2, 8]: 3.76e-09 M

CC[C@H](C)[C@@H]([C@@H](CC(=O)N1CCC[C@H]1[C@H](OC)[C@@H](C)C(=O)N[C@@H](Cc1ccccc1)C(=O)O)OC)N(C)C(=O)[C@@H](NC(=O)C(C(C)C)N(C)CCc1ccc(C(=O)O)cc1)C(C)C (some centres unmarked) [compound 2, reference compound] (X3-V[Dil][Dolaproine]F-OH)
EC50 [1, 7]: 9.75e-07 M
EC50 [2, 8]: 4.03e-07 M

IGF2: insulin-like growth factor 2, ligand of IGF-1R
Kd [6]: ~1 nM
